Results reported in patent US8324199B2, “Pyridazine derivatives as factor xia inhibitors” (Bristol-Myers Squibb Company, priority 2008, dated 2012).

molecular target: T1, purified human Factor XIa (Homo sapiens, UniProt P03951); experiment: Factor XIa assay (chromogenic substrate hydrolysis, Ki); assay type: biochemical; settings: purified human Factor XIa 75-200 pM, substrate S-2366, 50 mM HEPES pH 7.4
T1 construct: purchased Haematologic Technologies
Procedure: The effectiveness of compounds of the present invention as inhibitors of the coagulation factors XIa, VIIa, IXa, Xa, XIIa, plasma kallikrein or thrombin, can be determined using a relevant purified serine protease, respectively, and an appropriate synthetic substrate. The rate of hydrolysis of the chromogenic or fluorogenic substrate by the relevant serine protease was measured both in the absence and presence of compounds of the present invention. […] A decrease in the rate of absorbance or fluorescence change in the presence of inhibitor is indicative of enzyme inhibition. Such methods are known to one skilled in the art. The results of this assay are expressed as the inhibitory constant, Ki.
Factor XIa determinations were made in 50 mM HEPES buffer at pH 7.4 containing 145 mM NaCl, 5 mM KCl, and 0.1% PEG 8000 (polyethylene glycol; JT Baker or Fisher Scientific). Determinations were made using purified human Factor XIa at a final concentration of 75-200 pM (Haematologic Technologies) and the synthetic substrate S-2366 (pyroGlu-Pro-Arg-pNA; Chromogenix or AnaSpec) at a concentration of 0.0002-0.001 M.
The Michaelis constant, Km, for substrate hydrolysis by each protease, was determined at 25° C. using the method of Lineweaver and Burk. Values of Ki were determined by allowing the protease to react with the substrate in the presence of the inhibitor. Reactions were allowed to go for periods of 20-180 minutes (depending on the protease) and the velocities (rate of absorbance or fluorescence change versus time) were measured. The following relationships were used to calculate Ki values: (vo−vs)/vs=I/(Ki(1+S/Km)) for a competitive inhibitor with one binding site; or vs/vo=A+((B−A)/1+((IC50/(I)^n))); and Ki=IC50/(1+S/Km) for a competitive inhibitor where: […]

T1 sequence (P03951 388-625 limits assumed): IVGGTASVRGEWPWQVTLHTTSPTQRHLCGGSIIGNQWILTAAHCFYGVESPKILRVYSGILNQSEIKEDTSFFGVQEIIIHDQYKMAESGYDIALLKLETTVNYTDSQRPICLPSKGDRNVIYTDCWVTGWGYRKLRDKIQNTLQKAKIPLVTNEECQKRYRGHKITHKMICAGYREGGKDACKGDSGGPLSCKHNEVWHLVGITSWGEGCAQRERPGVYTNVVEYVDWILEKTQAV
T1 sequence (P03951 19-387 partner limits assumed): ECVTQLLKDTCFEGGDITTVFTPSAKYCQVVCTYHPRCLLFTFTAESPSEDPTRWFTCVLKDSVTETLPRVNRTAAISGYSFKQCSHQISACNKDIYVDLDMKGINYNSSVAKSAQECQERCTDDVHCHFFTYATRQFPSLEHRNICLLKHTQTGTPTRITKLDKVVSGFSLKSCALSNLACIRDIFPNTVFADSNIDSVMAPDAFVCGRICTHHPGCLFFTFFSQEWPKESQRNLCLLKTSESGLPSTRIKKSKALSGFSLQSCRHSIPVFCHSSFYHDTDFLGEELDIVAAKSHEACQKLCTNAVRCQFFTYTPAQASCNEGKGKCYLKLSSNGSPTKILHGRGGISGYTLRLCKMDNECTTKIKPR

Going from `COC(=O)Nc1ccc(-c2cc([C@H](CC3CN(C(=O)OC(C)(C)C)C3)NC(=O)/C=C/c3cc(Cl)ccc3-n3cnnn3)n[nH]c2=O)cc1` [Example 136, (S,E)-tert-Butyl 3-(2-(3-(5-chloro-2-(1H-tetrazol-1-yl)phenyl)acrylamido)-2-(5-(4-(methoxycarbonylamino)phenyl)-6-oxo-1,6-dihydropyridazin-3-yl)ethyl)azetidine-1-carboxylate] to `COC(=O)Nc1ccc(-c2cc([C@H](CC(=O)OC(C)(C)C)NC(=O)/C=C/c3cc(Cl)ccc3-n3cnnn3)n[nH]c2=O)cc1` [Example 146, (S,E)-tert-Butyl 3-(3-(5-chloro-2-(1H-tetrazol-1-yl)phenyl)acrylamido)-3-(5-(4-(methoxycarbonylamino)phenyl)-6-oxo-1,6-dihydropyridazin-3-yl)propanoate], the Ki falls from 503 nM to 5.5 nM (91-fold).

Going from `COC(=O)Nc1ccc(-c2cc([C@H](CC3CCN(C(=O)OCc4ccccc4)C3)NC(=O)/C=C/c3cc(Cl)ccc3-n3cnnn3)n[nH]c2=O)cc1` (stereo partly drawn) [Example 147, Benzyl 3-((S)-2-((E)-3-(5-chloro-2-(1H-tetrazol-1-yl)phenyl)acrylamido)-2-(5-(4-(methoxycarbonylamino)phenyl)-6-oxo-1,6-dihydropyridazin-3-yl)ethyl)pyrrolidine-1-carboxylate] to `COC(=O)Nc1ccc(-c2cc([C@H](CC3CCCN(S(C)(=O)=O)C3)NC(=O)/C=C/c3cc(Cl)ccc3-n3cnnn3)n[nH]c2=O)cc1` (stereo partly drawn) [Example 154, Methyl 4-(6-((1S)-1-((E)-3-(5-chloro-2-(1H-tetrazol-1-yl)phenyl)acrylamido)-2-(1-(methylsulfonyl)piperidin-3-yl)ethyl)-3-oxo-2,3-dihydropyridazin-4-yl)phenylcarbamate], the Ki falls from 5150 nM to 176 nM (29-fold).
